Data on 19 molecules can be found in patent publication US20230002352A1, “SULFONAMIDE DERIVATIVES AS CTPS1 INHIBITORS” (Step Pharma S.A.S., priority 2019, published 2023).

Assay [1] relates to human CTPS1 versus CTPS2. Put plainly: Human CTPS1 versus CTPS2 selectivity assessment by RapidFire/MS analysis. Format: biochemical. As to the method: Biological Example 2—RapidFire/MS-Based Enzyme Selectivity Assays.
Human CTPS1 Versus CTPS2 Selectivity Assessment by RapidFire/MS Analysis.
The enzyme inhibitory activities against each target isoform of interest may be determined for the compounds of the invention using an optimised RapidFire high-throughput mass spectrometry (RF/MS) assay format. RF/MS assays for both human CTPS1 and CTPS2 may be performed in assay buffer consisting of 50 mM HEPES (Merck), 20 mM MgCl2, 5 mM KCl, 1 mM DTT, 0.01% Tween-20, pH to 8.0 accordingly. Human full-length active C-terminal FLAG-His-tag CTPS1 (UniProtKB-P17812, CTPS[1-591]-[…]) may be obtained from Proteros biostructures GmbH. Human full length active C-terminal FLAG-His-Avi tagged CTPS2 (UniProtKB-Q9NRF8, CTPS2 [1-586]-[…]) may be obtained from Harker Bio.
Human CTPS (1 or 2) protein may be prepared in 1× assay buffer to the final working protein concentration required for the reaction. A 2 uL volume per well of 2×CTPS (1 or 2) protein may be mixed with 40 nL of compound using acoustic (ECHO) delivery and incubated for 10 minutes at 25° C. Each isoform enzymatic reaction may be subsequently initiated by addition of 2 uL per well of a 2× substrate mix in assay buffer. For hCTPS1: ATP (0.3 mM), UTP (0.2 mM), GTP (0.07 mM) and L-glutamine (0.1 mM). For hCTPS2: ATP (0.1 mM), UTP (0.04 mM), GTP (0.03 mM) and L-glutamine (0.1 mM). Each mixture may be incubated for an appropriate amount of time per isoform within the determined linear phase of the reaction at 25° C. A 60 uL volume of stop solution (1% formic acid with 0.5 uM ^13C9-^15N3-CTP in H2O) may be added and the plate immediately heat-sealed and centrifuged for 10 minutes at 4,000 rpm. Following centrifugation, plates may be loaded onto the Agilent RapidFire microfluidic solid phase extraction system coupled to an AP14000 triple quadrupole mass spectrometer (RF/MS) for analysis.
In all cases, the enzyme converts UTP to CTP. Highly specific and sensitive multiple reaction monitoring (MRM) MS methods may be optimised for the detection of the enzymatic reaction product, CTP, and the stable isotope labelled product standard ^13C9-^15N3-CTP. Readout for data analysis may be calculated as the ratio between the peak area of the product CTP and the internal standard ^13C9-^15N3-CTP. For data reporting, the following equation may be used: […]
For each screening plate, the means of the negative (DMSO) and positive control values were used for the calculation of the respective assay window (S/B) and Z′ values. The median of the respective control values was used for calculation of percent inhibition according to the following equation: […]
Percentage inhibition was then plotted against compound concentration, and the 50% inhibitory concentration (IC50) was determined from the resultant concentration-response curve.
Fold selectivity between CTPS1 and CTPS2 was subsequently calculated according to the following equation: […]

For assay [2], the target named is T1, human CTPS1 (Homo sapiens, UniProt P17812).
T1 construct: purchased Proteros biostructures GmbH
T1 sequence (P17812 1-591): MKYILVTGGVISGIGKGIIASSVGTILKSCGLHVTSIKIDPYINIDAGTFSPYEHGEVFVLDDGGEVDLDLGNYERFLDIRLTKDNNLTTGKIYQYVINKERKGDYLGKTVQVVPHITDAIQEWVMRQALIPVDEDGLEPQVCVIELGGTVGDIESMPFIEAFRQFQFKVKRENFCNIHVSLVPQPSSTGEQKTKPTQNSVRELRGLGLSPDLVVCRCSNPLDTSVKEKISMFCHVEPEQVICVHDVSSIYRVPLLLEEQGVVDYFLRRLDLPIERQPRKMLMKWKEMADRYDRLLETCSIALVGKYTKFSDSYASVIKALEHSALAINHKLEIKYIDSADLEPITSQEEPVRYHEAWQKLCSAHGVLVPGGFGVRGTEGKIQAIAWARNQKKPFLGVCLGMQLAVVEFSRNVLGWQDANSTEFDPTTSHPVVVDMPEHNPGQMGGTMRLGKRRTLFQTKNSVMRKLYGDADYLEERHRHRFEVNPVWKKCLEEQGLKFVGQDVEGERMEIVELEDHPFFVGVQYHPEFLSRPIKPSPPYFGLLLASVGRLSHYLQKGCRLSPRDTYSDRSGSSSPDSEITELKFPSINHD
As to the kind of experiment: Human CTPS1 enzyme inhibition (ADP-Glo Max assay). It is filed as biochemical. As to conditions: read-out: CTPS1 (Human CTPS1 Enzyme Inhibition data grouped by potency range, IC50). The essentials:
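Full-length FLAG-His-tagged human CTPS1 and compound were preincubated 10 min at 25 °C in 50 mM Tris pH 8.0, 10 mM MgCl2, 0.01% Tween-20, 2 mM L-cysteine. Substrate mix: ATP 0.31 mM, GTP 0.034 mM, UTP 0.48 mM, glutamine 0.186 mM; linear-phase reaction at 25 °C. ADP-Glo Max luminescence; IC50 from inhibition curve.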
(In ADP-Glo the light output rises with the ADP produced.)

Like-named read-outs stand apart in the source and are kept apart here.

For `CCOc1cncc(-c2ccc(NC(=O)C(CCOC)c3ccnc(NS(=O)(=O)C4CC4)n3)c(F)c2)n1` (centres unmarked) [Example P146], in assay [1] (Table 26), the “Selectivity (fold selectivity between CTPS1 and CTPS2)” value is “+++ (>60 fold (+++))”. Further, in assay [2] (Table 23, ADP-Glo Max assay), the IC50 (as a rule, the concentration needed to halve the response being measured) was at most 100 nM.

For `CCOc1cncc(-c2ccc(NC(=O)C(F)(CC)c3ccnc(NS(C)(=O)=O)n3)nc2)n1` (centres unmarked) [Example P151], the “Selectivity (fold selectivity between CTPS1 and CTPS2)” value in assay [1] (Table 26) is “+++ (>60 fold (+++))”. Besides, the IC50 in assay [2] (Table 23, ADP-Glo Max assay) is at most 100 nM.

Take `CCOc1cncc(-c2cnc(NC(=O)C(CC)c3ccnc(NS(=O)(=O)C4CC4)n3)c(C)c2)n1` (centres unmarked) [Example P155]: the “Selectivity (fold selectivity between CTPS1 and CTPS2)” value in assay [1] (Table 26) was “+ (2-30 fold (+))”. Also, the IC50 in assay [2] (Table 23, ADP-Glo Max assay) is at most 100 nM.

With `CCC(C(=O)Nc1ncc(-c2cncc(OC)n2)cc1F)c1ccnc(NS(=O)(=O)C2CC2)n1` (centres unmarked) [Example P158], in assay [1] (Table 26), the “Selectivity (fold selectivity between CTPS1 and CTPS2)” value is recorded as “+ (2-30 fold (+))”. The 50% inhibitory concentration (IC50) in assay [2] (Table 23, ADP-Glo Max assay) is 100 to 1000 nM.

For `CCC(C(=O)Nc1ccc(-c2cncc(OC)n2)cn1)c1ccnc(NS(=O)(=O)C2CC2)n1` (centres unmarked) [Example P159], the “Selectivity (fold selectivity between CTPS1 and CTPS2)” value in assay [1] (Table 26) is recorded as “+++ (>60 fold (+++))”. Also, the IC50 in assay [2] (Table 23, ADP-Glo Max assay) is at most 100 nM.

`CCOc1cncc(-c2ccc(NC(=O)C(CC)c3ccnc(NS(=O)(=O)C4CC4)n3)c(C)c2)n1` (centres unmarked) [Example P161]: the “Selectivity (fold selectivity between CTPS1 and CTPS2)” value in assay [1] (Table 26) is listed as “+ (2-30 fold (+))”. Moreover, the IC50 in assay [2] (Table 23, ADP-Glo Max assay) was at most 100 nM.

Turning to `CCOc1cncc(-c2cnc(NC(=O)C(CC)c3ccnc(NS(=O)(=O)C4CC4)n3)c(F)c2)n1` (centres unmarked) [Example P162], the “Selectivity (fold selectivity between CTPS1 and CTPS2)” value in assay [1] (Table 26) is reported as “++ (>30-60 fold (++))”. Moreover, the IC50 in assay [2] (Table 23, ADP-Glo Max assay) was at most 100 nM.

For `CCOc1cncc(-c2ccc(NC(=O)C(C)(CC)c3ccnc(NS(=O)(=O)C4CC4)n3)nc2)n1` (centres unmarked) [Example P163], the “Selectivity (fold selectivity between CTPS1 and CTPS2)” value in assay [1] (Table 26) is “+++ (>60 fold (+++))”. For the same molecule, in assay [2] (Table 23, ADP-Glo Max assay), the IC50 was at most 100 nM.

For `CCOc1cncc(-c2ccc(NC(=O)C(OC)c3ccnc(NS(=O)(=O)C4CC4)n3)cc2)n1` (centres unmarked) [Example P164], in assay [1] (Table 26), the “Selectivity (fold selectivity between CTPS1 and CTPS2)” value is “+ (2-30 fold (+))”. The IC50 in assay [2] (Table 23, ADP-Glo Max assay) was at most 100 nM.

With `CCOc1cncc(-c2ccc(NC(=O)C(C)(C)c3cncc(NS(=O)(=O)C4CC4)n3)nc2)n1` [Example P195], the “Selectivity (fold selectivity between CTPS1 and CTPS2)” value in assay [1] (Table 26) is “+++ (>60 fold (+++))”. In addition, the IC50 in assay [2] (Table 23, ADP-Glo Max assay) is at most 100 nM.

As to `CCOc1cncc(-c2ccc(NC(=O)C(C)(C)c3cncc(NS(=O)(=O)C4CC4)n3)cc2)n1` [Example P196], the “Selectivity (fold selectivity between CTPS1 and CTPS2)” value in assay [1] (Table 26) is listed as “+++ (>60 fold (+++))”. In addition, the IC50 in assay [2] (Table 23, ADP-Glo Max assay) was at most 100 nM.

In the case of `CCOc1cncc(-c2ccc(NC(=O)C3(c4cncc(NS(=O)(=O)C5CC5)n4)CCOCC3)nc2)n1` [Example P197], the “Selectivity (fold selectivity between CTPS1 and CTPS2)” value in assay [1] (Table 26) is “+++ (>60 fold (+++))”. In addition, the IC50 in assay [2] (Table 23, ADP-Glo Max assay) is at most 100 nM.

Consider `CC(C)Oc1cncc(-c2ccc(C(=O)NC(C)(C)c3cncc(NS(=O)(=O)C4CC4)n3)c(F)c2)n1` [Example P221], for which, in assay [1] (Table 26), the “Selectivity (fold selectivity between CTPS1 and CTPS2)” value is reported as “+ (2-30 fold (+))”. Besides, the IC50 in assay [2] (Table 23, ADP-Glo Max assay) lay in the range of 100 to 1000 nM.

On to `CC(C)(NC(=O)c1ccc(-c2cncc(C(F)(F)F)n2)cc1)c1cncc(NS(=O)(=O)C2CC2)n1` [Example P222], for which, in assay [1] (Table 26), the “Selectivity (fold selectivity between CTPS1 and CTPS2)” value is recorded as “+ (2-30 fold (+))”. Also, in assay [2] (Table 23, ADP-Glo Max assay), the IC50 was 100 to 1000 nM.

Take `CCOc1cncc(-c2ccc(NC(=O)C3(c4ccnc(NS(=O)(=O)C5CC5)n4)CCC(=O)CC3)nc2)n1` [Example P226, 1-(2-(Cyclopropanesulfonamido)pyrimidin-4-yl)-N-(5-(6-ethoxypyrazin-2-yl)pyridin-2-yl)-4-oxocyclohexanecarboxamide]: in assay [1] (Table 27), the “Selectivity (fold selectivity between CTPS1 and CTPS2)” value is listed as “+++ (>60 fold (+++))”. Moreover, the IC50 in assay [2] (Table 24, ADP-Glo Max assay) was at most 100 nM.

`CCOc1cncc(-c2ccc(NC(=O)C3(c4ccnc(NS(=O)(=O)C5CC5)n4)CCC(F)(F)CC3)nc2)n1` [Example P242]: in assay [1] (Table 27), the “Selectivity (fold selectivity between CTPS1 and CTPS2)” value was “+++ (>60 fold (+++))”. Also, the IC50 in assay [2] (Table 24, ADP-Glo Max assay) is at most 100 nM.

Turning to `CCOc1cncc(-c2ccc(NC(=O)C3(c4ccnc(NS(=O)(=O)C5CC5)n4)CCC4(CC3)OCCO4)nc2)n1` [Example P244, 8-(2-(cyclopropanesulfonamido)pyrimidin-4-yl)-N-(5-(6-ethoxypyrazin-2-yl)pyridin-2-yl)-1,4-dioxaspiro[4.5]decane-8-carboxamide], the “Selectivity (fold selectivity between CTPS1 and CTPS2)” value in assay [1] (Table 27) is reported as “+++ (>60 fold (+++))”. Moreover, the IC50 in assay [2] (Table 24, ADP-Glo Max assay) is at most 100 nM.

Take `CCOc1cncc(-c2ccc(NC(=O)C3(c4ccnc(NS(=O)(=O)C5CC5)n4)CCN(S(C)(=O)=O)CC3)nc2)n1` [Example P251]: the “Selectivity (fold selectivity between CTPS1 and CTPS2)” value in assay [1] (Table 27) is listed as “+++ (>60 fold (+++))”. Besides, in assay [2] (Table 24, ADP-Glo Max assay), the IC50 was at most 100 nM.

`CCOc1cncc(-c2ccc(NC(=O)C3(c4ccnc(NS(=O)(=O)CC#N)n4)CCOCC3)nc2)n1` [Example P287, 4-(2-((cyanomethyl)sulfonamido)pyrimidin-4-yl)-N-(5-(6-ethoxypyrazin-2-yl)pyridin-2-yl)tetrahydro-2H-pyran-4-carboxamide]: in assay [1] (Table 28, compounds where R1 is substituted by CN), the “CTPS1 (Selectivity data)” value is on record as “+++ (>60 fold (+++))”. The IC50 in assay [2] (Table 25, compounds where R1 is substituted by CN) is at most 100 nM.
